Laboratory results as given in patent publication US5498632A, “Esters of acyl carnitines with long-chain aliphatic alcohols and pharmaceutical compositions containing same having antibacterial activity” (Sigma-Tau Industrie Farmaceutiche Riunite S.p.A., priority 1992, dated 1996).

Columns and labels:
[1] = test system: antibody-producer B lymphocytes (spleen of SRBC immunized mice); assay: Test 1: primary antibody production (Jerne test) in spleen of SRBC immunized mice; format: in vivo, mouse (male B6 D2 F1)
Protocol: Evaluation of the "in vitro-ex vivo" effect of repeated oral administrations of ST 722 on the primary antibody production (Jerne test) in the spleen of SRBC (Sheep Red Blood Cells) immunized mice.
Male B6 D2 F1 mice (C. River) aged 8 weeks (6 animals each group) were utilized.
The substance (ST 722) was administered per os at the dose of 100 mg/kg/day from day -2 through day +2 (immunization at day 0).
The animals were immunized by intraperitoneal route with a concentration of 1.0×10^8 cells/mouse in 0.2 ml of sterile saline.
Five days later, spleens to be submitted to teasing process were removed from the animals sacrificed by cervical dislocation.
After standardization at 1.0×10^7 cells/ml, the splenocytes (0.1 ml) were mixed with warm agar-Hank's (2 ml) and 10% SRBC in PBS (0.2 ml) and seeded in Petri dishes (samples tested in triplicates) and incubated at 37° C. for 60 min.
After addition of complement (2 ml of guinea pig serum diluted 1:10 in Tris buffer), samples were further incubated at 37° C. for 30 min.
To block the haemolysis reaction, the Petri dishes were cooled at 4° C. and the haemolysis plaques were counted.
The antibody response to SRBC is expressed as number of plaque forming cells (PFC) per 1.0×10^6 splenocytes as well as per spleen.

[2] = test system: Bacillus pumilus (CN 607); assay: MIC in broth, Gram+ strains; format: cell-based; conditions: B. pumilus (CN 607), Mueller-Hinton broth, 37° C., 18 hours, read-out: Minimal Inhibitory Concentration (MIC)
Protocol: (§1) Evaluation of the Minimal Inhibitory Concentration (MIC) in broth of 15 new substances for Gram+ bacterial strains.
(§2) The following strains were used: Staphylococcus aureus (4); Streptococcus faecalis (8); Bacillus pumilus (1); Bacillus subtilis (1).
(§3) MICs were determined by a standard microdilution test, using serial two-fold dilutions of the substances in Mueller-Hinton broth.
(§4) The inoculum was prepared from an overnight culture in Mueller-Hinton broth matching the 0.5 Mc Farland (turbidity) standard (BRAY W. E., Clinical Laboratory Methods, 5th Ed. C. V. MOSBY, St. Louis, Mo. 1957), and was adjusted to a final concentration of 5.0×10^4 colony-forming units/ml.
(§5) Equal volumes (0.1 ml) of both bacterial suspensions and substance solutions were distributed in microtiter plates (Falcon, 96 wells, round bottom), and then placed in a humidified incubator (37° C.) for 18 hours.
(§6) The results, in terms of MIC values, resistant strain number and mean MIC values versus susceptible strains, are illustrated in Tables 1-6.

[3] = test system: Staphylococcus aureus (303); assay: MIC in broth, Gram+ strains; format: cell-based; conditions: S. aureus (303), Mueller-Hinton broth, 37° C., 18 hours, read-out: Minimal Inhibitory Concentration (MIC)
Protocol: as §1, §2, §3, §4, §5, §6

[4] = test system: Staphylococcus aureus (306 MR); assay: MIC in broth, Gram+ strains; format: cell-based; conditions: S. aureus (306 MR), Mueller-Hinton broth, 37° C., 18 hours, read-out: Minimal Inhibitory Concentration (MIC)
Protocol: as §1, §2, §3, §4, §5, §6

[5] = test system: Streptococcus faecalis (505); assay: MIC in broth, Gram+ strains; format: cell-based; conditions: Enterococcus faecalis; S. faecalis (505), Mueller-Hinton broth, 37° C., 18 hours; read-out: Minimal Inhibitory Concentration (MIC)
Protocol: as §1, §2, §3, §4, §5, §6

[6] = test system: Streptococcus faecalis (518); assay: MIC in broth, Gram+ strains; format: cell-based; conditions: Enterococcus faecalis; S. faecalis (518), Mueller-Hinton broth, 37° C., 18 hours; read-out: Minimal Inhibitory Concentration (MIC)
Protocol: as §1, §2, §3, §4, §5, §6

[7] = test system: Streptococcus faecalis (519); assay: MIC in broth, Gram+ strains; format: cell-based; conditions: Enterococcus faecalis; S. faecalis (519), Mueller-Hinton broth, 37° C., 18 hours; read-out: Minimal Inhibitory Concentration (MIC)
Protocol: as §1, §2, §3, §4, §5, §6

[8] = test system: Streptococcus faecalis (R 2); assay: MIC in broth, Gram+ strains; format: cell-based; conditions: Enterococcus faecalis; S. faecalis (R 2), Mueller-Hinton broth, 37° C., 18 hours; read-out: Minimal Inhibitory Concentration (MIC)
Protocol: as §1, §2, §3, §4, §5, §6

[9] = test system: Streptococcus faecalis (UM); assay: MIC in broth, Gram+ strains; format: cell-based; conditions: Enterococcus faecalis; S. faecalis (UM), Mueller-Hinton broth, 37° C., 18 hours; read-out: Minimal Inhibitory Concentration (MIC)
Protocol: as §1, §2, §3, §4, §5, §6

[10] = test system: Campylobacter coli LI 048; assay: MIC in agar (agar dilution); format: cell-based
Protocol: (§7) In this experiment the activity of ST 722 and ST 712 against Campylobacter and Helicobacter was investigated.
(§8) Campylobacter fetus ATCC 27374, Campylobacter coli LI 048, Campylobacter jejuni 84-ISS, and Helicobacter pylori NCTC 11637.
(§9) The culture medium was Columbia agar base supplemented with 7% (V/V) defribinated horse blood (DHB) for Campylobacter strains, and the same medium additioned with Vitox (Oxoid) for Helicobacter strain.
(§10) The Campylobacter and Helicobacter strains, preserved at -80° C. in DHB containing 10% (V/V) glycerol, were thawed and grown, in their respective culture medium, in culture flasks, which were incubated for 48 hours at 37° C. in a 10% CO2 atmosphere. After this first growth cycle, the bacteria were allowed to go through a second growth cycle in the same conditions as above.
(§11) The bacterial "patina" was then harvested by resuspension in 4-5 ml of Mueller-Hinton broth, the turbidity of which was then assessed according to Mc Farland's criteria (BRAY W. E., Clinical Laboratory Methods, 5th Ed. C. V. MOSBY, St. Louis, Mo. 1957).
(§12) The Helicobacter suspension was adjusted to an approximate concentration of 1.0×10^9 and 1.0×10^8 organisms/ml, while the Campylobacter suspension was adjusted to 1.0×10^7 and 1.0×10^6 organisms/ml.
(§13) With a Steers-type multipoint inoculator (STEERS E., FOLTZ E. L., GRAVES S., RIDEN J., 1959. Inocula-replicating apparatus for routine testing of antibacterial susceptibility to antibiotics. Antibiot. Chemoter. 9: 307-311) 1-μl volumes of the above standardized suspensions were spot-transferred into the wells of a 96-well microtiter plate, which had previously been filled with 0.2 ml/well of Mueller-Hinton agar 5% DHB, containing the test substances at different concentrations.
(§14) The plates was then incubated for 48/72 hours at 37° C. in a 10% CO2 atmosphere.

[11] = test system: Campylobacter fetus ATCC 27374; assay: MIC in agar (agar dilution); format: cell-based
Protocol: as §7, §8, §9, §10, §11, §12, §13, §14

[12] = test system: Campylobacter jejuni 84-ISS; assay: MIC in agar (agar dilution); format: cell-based
Protocol: as §7, §8, §9, §10, §11, §12, §13, §14

[13] = 100 mg/kg/day per os, day -2 through day +2, mean ± S.E.

Structure (SMILES): CCCCCCCCCCCOC(=O)CC(C[N+](C)(C)C)OC(=O)CC(C)C [ST 722, Isovaleryl-L-Carnitine Undecyl Ester Chloride]
- toxic effect on weight of the lymphoid organs (spleen and thymus) ([1]; 100 mg/kg/day per os): did not show values relating to a toxic effect
- Body weight [1, 13]: 25.12 g
- PFC/10^6 cells [1, 13]: 261 ± 34 PFC/10^6 cells
- PFC/spleen [1, 13]: 44440 PFC/spleen
- Spleen weight [1, 13]: 94.33 mg
- Thymus weight [1, 13]: 59.50 mg
- modification in PFC number after the antigenic challenge ([1]; repeated (5 consecutive days) oral administrations): did not cause a statistically significant modification in PFC number
- MIC [2]: 1.56 µg/mL
- MIC [3]: 6.25 µg/mL
- MIC [4]: 6.25 µg/mL
- MIC [5]: 3.12 µg/mL
- MIC [6]: 3.12 µg/mL
- MIC [7]: 3.12 µg/mL
- MIC [8]: 3.12 µg/mL
- MIC [9]: 1.56 µg/mL
- MIC ([10]; Campylobacter coli, LI048, I = inoculum of 1.0 × 10^3): 3.12 µg/mL
- MIC in agar ([10]; II = inoculum of 1.0 × 10^4): 3.12 µg/mL
- MIC ([11]; Campylobacter fetus, ATCC27374, I = inoculum of 1.0 × 10^3): 100 µg/mL
- MIC in agar ([11]; II = inoculum of 1.0 × 10^4): 100 µg/mL
- MIC ([12]; I = inoculum of 1.0 × 10^3): 12.5 µg/mL
- MIC ([12]; II = inoculum of 1.0 × 10^4): 12.5 µg/mL
